Here are results for one compound from publication PMC2700083, “A covalent peptide inhibitor of RGS4 identified in a focused one-bead, one compound library screen” (BMC Pharmacology, 2009).

One series concerns the target T1, RGS7 (Homo sapiens, UniProt P49802).
T1 construct: RGS7 RGS domain (aa: 305–453); made in house
T1 sequence (P49802 305-453): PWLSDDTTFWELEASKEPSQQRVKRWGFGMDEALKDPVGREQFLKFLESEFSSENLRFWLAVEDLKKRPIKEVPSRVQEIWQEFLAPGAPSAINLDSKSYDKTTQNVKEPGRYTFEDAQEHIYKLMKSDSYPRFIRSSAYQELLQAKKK
The series is described as follows: FCPIA, Gαo binding to RGS7. Conditions: Figure 2. The method, then: We recently described a bead-based screen in which 2.5 × 10^6 different peptide sequences were prepared as a OBOC library. Fluorescently labeled RGS4 was used to probe the library for peptides that bind RGS4 [5]. […] Since the majority of those hit peptides could bind tightly to the RGS without disrupting GAP activity, they were also tested in the flow cytometry protein interaction assay (FCPIA) (Figure 1), which measures the interaction between RGS4 and Gαo. In this method we used a Luminex flow cytometer to detect the binding of Alexa Fluor 532-labeled Gαo to biotinylated RGS4 on avidin beads in the presence of AMF (AlCl3, MgCl2, NaF and GDP) to put the Gα subunit into a transition state-like conformation. Peptides were tested at 50 μM except where limited by solubility (Table 1).
5nd inhibited Gαo binding to a number of different RGS proteins (Figure 2). […] RGS19 and RGS7 are in the RZ and R7 families, respectively and show less inhibition by 5nd. Linear as well as bridged versions of peptide 5 were tested in the FCPIA since cyclization yields would most likely have been less then 100% in the synthesis of the library leaving some linear peptides present on each bead. […] This may be due to lack of structural rigidity necessary for the correct interaction of the peptide with the RGS protein or a role for chemical reactivity of the disulfide.
Figure 2 Characterization of hit 5. […]

Series [1] can be described thus: Solubility in buffer by HPLC. Format: physicochemical. The method, then:
Soluble peptides were synthesized on Rink resin, cleaved and cyclized as described previously. Peptide purity (at least 95%) and solubility were verified by high-performance liquid chromatography and correct mass was verified by MS analysis. ALogP calculations are from. Peptides were prepared as 5 mM stocks in DMSO.

Series [2] relates to RGS4 no Cys in C-terminus. The series is described as follows: FCPIA, RGS4 mutant with no Cys in C-terminus. Format: binding. The method, then:
(§1) Since 5nd forms an irreversible, DTT-sensitive bond with RGS, it was suspected that it binds covalently to a cysteine in the protein through a disulfide bridge. Indeed, removal of all 7 cysteines (termed the -7C mutant) from RGS4 greatly diminished 5nd activity (logIC50 of -3.24 ± 0.14 for -7C vs. -4.36 ± 0.02 for wild type) (Figure 5, Table 2).
(§2) Figure 5 Dose curves of 5nd on various RGS4 cysteine mutants. Various concentrations of 5nd were tested for disruption of the RGS4-Gαo interaction for C95A (5 nM), or […], C71A (5nM) or C148A (5nM) (B), A95C in the -7C (5nM), or A132C in the -7C (5nM) (C), A71C in the -7C (5nM), or A148C in the -7C (5nM) (D) or the mutant with no cysteines in the domain (20 nM) or the C-terminus (20 nM) (E) in the FCPIA (mean ± S.E.M., n ≥ 3).
(§3) Proteins were expressed, purified and labeled as described previously. The mutagenesis was done using the "QuickChange Multi Site-Directed Mutagenesis Kit" from Stratagene according to the manufacturer's protocol. The construct of RGS4 used in these studies is a maltose binding protein (MBP-) fusion protein of the RGS4 sequence from which the amphipathic N-terminal helix has been removed (i.e. MBP-RGS4Δ51N). For simplicity in the text, this will be referred to as RGS4. […]

In a further series the target is T2, RGS4 C132A (Rattus norvegicus, UniProt P49799, C132A).
T2 construct: made in house
T2 sequence (P49799 52-205 C132A limits assumed): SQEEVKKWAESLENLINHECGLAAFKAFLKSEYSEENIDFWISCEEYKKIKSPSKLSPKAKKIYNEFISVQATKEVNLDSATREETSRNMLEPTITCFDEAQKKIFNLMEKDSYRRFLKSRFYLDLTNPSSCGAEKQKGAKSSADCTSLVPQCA
The series is described as follows: FCPIA, RGS4 cysteine mutant C132A. Format: binding. The following applies: read-out: 5nd logIC50 (converted). The method, then:
as §2
Proteins were expressed, purified and labeled as described previously. The mutagenesis was done using the "QuickChange Multi Site-Directed Mutagenesis Kit" from Stratagene according to the manufacturer's protocol. The construct of RGS4 used in these studies is a maltose binding protein (MBP-) fusion protein of the RGS4 sequence from which the amphipathic N-terminal helix has been removed (i.e. MBP-RGS4Δ51N). For simplicity in the text, this will be referred to as RGS4. All other RGS proteins were human sequences and were used as Mpb fusions: RGS7 RGS domain (aa: 305–453), RGS8 full length, RGS16 full length, and RGS19ΔC11 (amino acids 1–209). To cleave RGS4Δ51N from the MBP-His6 construct for MS analysis, MBP-His6-RGS4Δ51N was treated with 15% MBP-His6-TEV protease S219V [11] for 22 hours at 4°C and purified over a Ni-NTA column.
FCPIA was performed as previously published.

Series [3] concerns the target T3, RGS4 no Cys in RGS domain (Rattus norvegicus, UniProt P49799, C132A/C148A/C71A/C95A).
T3 construct: made in house
The series is described as follows: FCPIA, RGS4 mutant with no Cys in RGS domain. Format: binding. The method, then:
as §1, §2, §3

The next series deals with T4, RGS4 (Rattus norvegicus, UniProt P49799).
T4 construct: made in house
T4 sequence (P49799 52-205 limits assumed): T2 sequence (P49799 52-205 C132A limits assumed) with A81C
The series is described as follows: FCPIA (flow cytometry protein interaction assay), RGS4-Gαo interaction, wild type RGS4 (MBP-RGS4Δ51N). Format: binding. Conditions: 100 μM. In general terms: A flow cytometer gives signals particle by particle.

A further series concerns the target T5, RGS4 A95C, -7C (Rattus norvegicus, UniProt P49799, C132A/C148A/C183A/C197A/C204A/C71A).
T5 construct: made in house
The series is described as follows: FCPIA, RGS4 A95C in the -7C. Conditions: read-out: 5nd logIC50 (converted). Format: binding. The method, then:
as §2
The previous experiments tested which cysteines are necessary for inhibition by 5nd. In an alternative approach, we added cysteines back to the -7C mutant to determine which might be sufficient for 5nd activity. […] Furthermore, Cys132 is involved in the actions but this is clearly not sufficient to explain them. Thus it is concluded that 5nd is at least partially non-selective in its cysteine modification.
as §3

Numbering of substitutions follows the chain as printed. ≈ marks a conversion by molar mass, not a printed value. Where “and” joins values, the source holds several entries; their conditions need not be identical. Equal values may be shown once. Read-outs that look alike come from different tables or passages of the source. Where a SMILES comes first, the peptide text is derived from it. Bridges are numbered along the chain shown (N, C = ends).

T3 sequence (P49799 52-205 C71A/C95A/C132A/C148A limits assumed): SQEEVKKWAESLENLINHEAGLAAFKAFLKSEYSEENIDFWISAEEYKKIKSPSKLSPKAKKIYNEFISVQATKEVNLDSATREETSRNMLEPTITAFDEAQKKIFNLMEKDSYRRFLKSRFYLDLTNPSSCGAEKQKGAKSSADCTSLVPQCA
T5 sequence (P49799 52-205 C71A/C132A/C148A/C183A/C197A/C204A): as the sequence (P49799 52-205 C71A/C95A/C132A/C148A limits assumed) above, with A44C, C132A, C146A, C153A counted along it

As to `CC(C)C[C@@H]1NC(=O)CNC(=O)[C@H](CCCCN)NC(=O)[C@@H](NC(=O)[C@H](Cc2c[nH]c3ccccc23)NC(=O)[C@@H](N)Cc2ccc(O)cc2)CSSC[C@@H](C(=O)N[C@@H](CCCCN)C(N)=O)NC1=O` [Peptide 5nd, Tyr-Trp-c [Cys-Lys-Gly-Leu-Cys]-Lys-NH2, S-S] (H-YWCKGLCK-NH2; disulfide 3-7), the IC50 at RGS7 (read-out: logIC50, RGS7 (converted)) was roughly 174 µM; at RGS7 (dose response, read-out: IC50, Gαo binding to RGS7), 175 µM and ~175 µM; at RGS4 C132A, 138 µM; in series [3] (no Cys in RGS domain, read-out: 5nd logIC50 (converted)), 158 µM; on RGS4 A95C, -7C, 263 µM. Also, in series [1], the solubility (commonly the dissolved amount per volume that the medium holds) came to 463 µM (≈ 462 µg/mL). For the same compound, the “5nd logIC50” value in series [2] is on record as -4.39 ± 0.07 M. Besides, the “reduction of potency by removal of all 4 cysteines from the RGS domain” value in series [3] (versus wild type RGS4) is reported as 3.6 fold. In addition, the inhibition – broadly, the drop in the measured response relative to a control, in per cent – at 100 µM was determined as 15 ± 4% on RGS4 (beads washed in buffer with 1 mM DTT, read-out: percent inhibition of RGS4-Gαo after DTT wash) and 75 ± 11% on RGS4 (beads washed in buffer without DTT, read-out: percent inhibition of RGS4-Gαo remaining after washing of the beads).
